Test results taken from PMC4342888, “A search for protein biomarkers links olfactory signal transduction to social immunity” (BMC Genomics, 2015).

How the values were obtained:
OBP21 [1] = molecular target: T1, OBP21 (Apis mellifera, UniProt A0ACM8Q9Q6); assay: direct fluorescence titration of purified protein; type: binding
T1 construct: purified recombinant protein
T1 sequence (A0ACM8Q9Q6 17-135): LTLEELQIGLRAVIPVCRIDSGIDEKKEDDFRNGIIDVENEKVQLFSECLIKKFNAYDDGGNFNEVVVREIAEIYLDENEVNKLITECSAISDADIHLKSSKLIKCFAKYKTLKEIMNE

[2] = molecular target: T2, Odorant binding protein 18 (OBP18) (Apis mellifera, UniProt A0ACM8Q9Q2); assay: direct fluorescence titration of purified protein
T2 construct: recombinant mature protein
T2 sequence (A0ACM8Q9Q2 17-135): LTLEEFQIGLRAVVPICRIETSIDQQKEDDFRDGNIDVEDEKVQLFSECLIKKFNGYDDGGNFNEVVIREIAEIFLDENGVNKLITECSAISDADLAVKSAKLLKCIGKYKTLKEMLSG

[3] = molecular target: T3, Odorant binding protein 16 (OBP16) (Apis mellifera, UniProt A0ACM8Q9Q1); assay: direct fluorescence titration of purified protein
T3 construct: recombinant mature protein
T3 sequence (A0ACM8Q9Q1 17-135): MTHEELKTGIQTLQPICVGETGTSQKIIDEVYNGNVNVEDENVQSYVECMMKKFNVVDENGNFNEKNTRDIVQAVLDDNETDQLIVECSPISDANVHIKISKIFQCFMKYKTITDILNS

OBP21 [4] = molecular target: T1, OBP21; assay: biochemical; parameters: competitive fluorescence displacement of 1-NPN (2 uM) from recombinant OBP, emission 380-450 nm
Procedure: (§1) The probe was excited at 337 nm and emission spectra were recorded between 380 and 450 nm. […] For determining binding constants, the intensity values corresponding to the maximum of fluorescence emission were plotted against free ligand concentrations. Bound ligand was evaluated from the values of fluorescence intensity assuming that the protein was 100% active, with a stoichiometry of 1:1 protein:ligand at saturation. The curves were linearized using Scatchard plots. Dissociation constants of the competitors were calculated from the corresponding IC50 values (concentrations of ligands halving the initial fluorescence value of 1-NPN), using the equation: KD = [IC50]/1 + [1-NPN]/K1-NPN, [1-NPN] being the free concentration of 1-NPN and K1-NPN being the dissociation constant of the complex Protein/1-NPN.  Figure 7 Potential ligands of OBPs. Twenty nine potential ligands were tested in a competitive binding assay for their binding to OBP16, OBP18 and OBP21. Each purified recombinant protein was mixed with the fluorescent probe N-phenyl-1-naphthylamine (1-NPN), both at the concentration of 2 μM in Tris buffer. Each mixture was titrated with a ligand and the displacement of the fluorescent probe from the complex was used to evaluate the relative dissociation constants, as described in the Methods section. Compounds with higher affinities are shown in the top panel, while compound with lower affinity are shown in the lower panel.

OBP21 [5] = molecular target: T1, OBP21; assay: biochemical; parameters: competitive fluorescence displacement of 2 uM 1-NPN from purified recombinant OBP (2 uM), Tris pH 7.4; conditions: IC50 against 2 uM 1-NPN
Procedure: as §1

[6] = molecular target: T3, Odorant binding protein 16 (OBP16); assay: biochemical; parameters: competitive fluorescence displacement of 2 uM 1-NPN from purified recombinant OBP (2 uM), Tris pH 7.4; conditions: for IC50: IC50 against 2 uM 1-NPN; for Kd: KD calculated from IC50 of 1-NPN displacement
Procedure: as §1

[7] = molecular target: T2, Odorant binding protein 18 (OBP18); assay: biochemical; parameters: competitive fluorescence displacement of 2 uM 1-NPN from purified recombinant OBP (2 uM), Tris pH 7.4; conditions: for IC50: IC50 against 2 uM 1-NPN; for Kd: KD calculated from IC50 of 1-NPN displacement
Procedure: as §1

Structure (SMILES) | Kd (OBP21 [4]) [µM] | IC50 (OBP21 [5]) [µM] | IC50 [6] [µM] | Kd [6] [µM] | IC50 [7] [µM] | Kd [7] [µM] | Kd (OBP21 [1]) [µM] | Kd [2] [µM] | Kd [3] [µM]
c1ccc(Nc2cccc3ccccc23)cc1 [1-NPN, N-phenyl-1-naphthylamine] | – | – | – | – | – | – | 1 to 5 | 1 to 5 | 1 to 5
COc1ccccc1/C=C/C=O [2-Methoxycinnamaldehyde] | 33.9 | 20 | 20 | 9.2 | 3.8 | 1.7 | – | – | –
Cc1ccccc1C=CC=O [2-Methylcinnamaldehyde] | 30.5 | 18 | 7 | 3.2 | 1.2 | 0.5 | – | – | –
OCCc1ccccc1 [2-Phenyl ethanol] | – | > 20 | > 20 | – | 2.5 | 1.1 | – | – | –
CC(=O)OCCc1ccccc1 [2-Phenylethyl acetate] | 30.5 | 18 | 8 | 3.7 | 2.5 | 1.1 | – | – | –
OCc1ccccc1 [Benzyl alcohol] | – | > 20 | 9.8 | 4.5 | 2.5 | 1.1 | – | – | –
O=C/C=C/c1ccccc1 [Cinnamaldehyde] | – | > 20 | 20 | 9.2 | 3.4 | 1.5 | – | – | –
CC(C)=CCC/C(C)=C/C=O [Citral] | 27.1 | 16 | 4.4 | 2 | 1.6 | 0.7 | – | – | –
CC(C)=CCCC(C)CC=O (stereo not shown) [Citronellal] | 13.6 | 8 | 3.5 | 1.6 | 2.5 | 1.1 | – | – | –
COc1cc(/C=C/CO)ccc1O [Coniferyl alcohol] | – | > 20 | 18 | 8.3 | 3.6 | 1.6 | – | – | –
C=CCc1ccc(O)c(OC)c1 [Eugenol] | – | > 20 | > 20 | – | 2.3 | 1 | – | – | –
COc1cc(CC(=O)O)ccc1O [Homovanillic acid] | – | > 20 | 18 | 8.3 | 3.2 | 1.4 | – | – | –
COc1cc(CCO)ccc1O [Homovanillic alcohol] | – | > 20 | 10.5 | 4.8 | 2.7 | 1.2 | – | – | –
C=CC(C)(O)CCC=C(C)C (stereo not shown) [Linalool] | – | > 20 | 18 | 8.3 | 3 | 1.3 | – | – | –
COC(=O)c1ccc(O)cc1 [Methyl p-hydroxybenzoate] | 8.5 | 5 | 2.5 | 1.1 | 1.9 | 0.8 | – | – | –
CC(C)=CCC/C(C)=C/CO [geraniol] | – | > 20 | 1.1 | 0.5 | 0.3 | 0.1 | – | – | –

More lines, main results first:

Kd (OBP21 [4]) [µM] | IC50 (OBP21 [5]) [µM] | IC50 [6] [µM] | Kd [6] [µM] | IC50 [7] [µM] | Kd [7] [µM] | Structure (SMILES) | Kd (OBP21 [1]) [µM] | Kd [2] [µM] | Kd [3] [µM]
33.9 | 20 | 18 | 8.3 | 2.4 | 1.1 | CCCCCC(C)=O [2-Heptanone] | – | – | –
3.7 | 2.2 | 0.5 | 0.2 | 0.2 | 0.1 | CC(C)CCCC(C)CCO (stereo not shown) [3,7-dimethyloctanol] | – | – | –
– | > 20 | 11 | 5 | 2.5 | 1.1 | CC(C)CC(=O)O [3-Methylbutanoic acid] | – | – | –
6.8 | 4 | 3.5 | 1.6 | 1.5 | 0.7 | CC(=O)CCCCCCCC(=O)O [9-Ketodecanoic acid] | – | – | –
16.9 | 10 | 0.7 | 0.3 | 0.3 | 0.1 | CCCCCCCCCCCC(=O)O [Dodecanoic acid] | – | – | –
– | > 20 | 1.1 | 0.5 | 0.2 | 0.1 | CCCCCCCCCCCCCCCC(=O)OCC [Ethyl palmitate] | – | – | –
2.5 | 1.5 | 1.8 | 0.8 | 1.8 | 0.8 | CC(=O)CC/C=C(\C)CCC=C(C)C [Geranylacetone] | – | – | –
– | > 20 | 2 | 0.9 | 0.1 | 0.04 | CCCCC/C=C\C/C=C\CCCCCCCC(=O)OC [Methyl linoleate] | – | – | –
– | > 20 | 0.9 | 0.4 | 0.2 | 0.1 | CCCCCCCCCCCCCCCC(=O)OC [Methyl palmitate] | – | – | –
– | > 20 | 1 | 0.5 | 0.2 | 0.1 | CCCCCCCCCCCCCCCCCC(=O)OC [Methyl stearate] | – | – | –
– | > 20 | 1.1 | 0.5 | 0.3 | 0.1 | CCCCCCCCC(=O)O [Nonanoic acid] | – | – | –
0.6 | 0.4 | 1 | 0.4 | 0.1 | 0.1 | CCCCCCCC/C=C\CCCCCCCC(N)=O [Oleamide] | – | – | –
3.1 | 1.8 | 0.2 | 0.1 | 0.2 | 0.1 | CC(=O)OC/C=C(\C)CCC=C(C)C [geranyl acetate] | – | – | –
0.4 | 0.3 | 0.9 | 0.4 | 0.1 | 0.04 | CCCCCCCC/C=C\CCCCCCCC(=O)O [oleic acid] | – | – | –
